How the values were obtained:
[1] = Long term storage stability at 2-8° C.; format: physicochemical; conditions: storage at 2-8° C.
[2] = Exposure of the solid form to 20-80% relative humidity for 7 days at room temperature; format: physicochemical; conditions: exposed to 20-80% RH for 7 days at room temperature

Substance	long term stability [1]	deliquescence [2]	polymorphic stability [2]
Lucerastat: L-Pyroglutamic acid	at least 1 year	does not deliquesce	polymorphically stable
Lucerastat: Salicylic acid [Lucerastat: Salicylic acid Form LC-2]	at least 1 year		
